According to ChEMBL document CHEMBL3992569, “Opioid Receptor Activity and Analgesic Potency of DPDPE Peptide Analogues Containing a Xylene Bridge” (ACS Med Chem Lett, 2017):
Calls of active or inactive are those of the source. No cut-off for these calls is given here.

Assays:
[1] = system: Mus musculus; assay: Antinociceptive activity in CD-1 mouse model of thermal-induced nociception assessed as increase in latency to respond with hind paw lick or jumping at 23 nmol/mouse, icv measured 15 to 60 mins post dose by hot plate test relative to control; type: functional
[2] = system: Mus musculus; assay: Antinociceptive activity in CD-1 mouse model of thermal-induced nociception assessed as increase in latency to tail withdrawal at 23 nmol/mouse, icv measured 15 to 60 mins post dose by tail flick test relative to control; type: functional
[3] = system: Mus musculus; assay: Analgesic activity in CD-1 mouse model of formalin-induced pain assessed as increase in latency to respond with hind paw lick or biting at 150 nmol/mouse, sc administered 15 mins prior to formalin injection measured up to 40 mins post dose; type: functional, organism-based
[4] = system: Mus musculus; assay: Antinociceptive activity in CD-1 mouse model of thermal-induced nociception assessed as increase in latency to respond with hind paw lick or jumping at 23 nmol/mouse, icv measured 45 mins post dose by hot plate test; type: functional
[5] = system: Mus musculus; assay: Antinociceptive activity in CD-1 mouse model of thermal-induced nociception assessed as increase in latency to tail withdrawal at 23 nmol/mouse, icv measured 45 mins post dose by tail flick test; type: functional

Structure (SMILES) | MPE [1] | MPE [2] | Activity [3] | Activity [4] | Activity [5]
CC1(C)SCc2cccc(c2)CSC(C)(C)[C@@H](NC(=O)[C@@H](N)Cc2ccc(O)cc2)C(=O)NCC(=O)N[C@@H](Cc2ccccc2)C(=O)N[C@H]1C(=O)O.O=C(O)C(F)(F)F | >60% | >60% | Active | – | –
CC1(C)SSC(C)(C)[C@@H](NC(=O)[C@@H](N)Cc2ccc(O)cc2)C(=O)NCC(=O)N[C@@H](Cc2ccccc2)C(=O)N[C@H]1C(=O)O | – | – | inactive | Active | Active
